Test results taken from patent US20140296190A1, “MARKETING THE USE OF 25-HYDROXYVITAMIN D3 TO ENHANCE COGNITION” (DSM IP ASSETS B.V., priority 2013, published 2014).
Like-named read-outs stand apart in the source and are kept apart here.

What was measured:
[1] = tested on: frail elderly with a low Vitamin D status; test: Example 2 placebo-controlled trial: executive function tests in frail elderly; format: in vivo, human; settings: 6 months, in comparison to Vitamin D3 and placebo
From the text: The design is a parallel group, randomized, placebo-controlled, double-blind study with three different application groups. Each group has an appropriate number of participants (e.g., 20 participants). Eligibility is defined as being 65 years or older and being frail or pre-frail. Frailty is defined as having unintentional weight loss, weakness, self-reported exhaustion, slow walking speed, and/or low physical activity (see Fried L P, et al. Frailty in older adults: evidence for a phenotype. J Gerontol A Biol Sci Med. Sci. March 2001; 56(3):[…]-156.) A participant is classified as pre-frail when one or two of the aforementioned criteria are met, while frail is classified when three or more criteria are present. […] The duration of supplementation is 6 months (180 days). […] Double-blind randomization is carried out by means of a label code associated with a specific participant ID number, whose meaning is known only to the supplier. Participants are allocated randomly to these numbers. For baseline (Day 0) the following tests are performed: […] […] Executive functioning test batteries include the following standard tests of executive functioning: Trail Making Tests A and B (to determine the ratio of TMT-B/TMT-A), Stroop Colour-Word Test, including determining the Stroop ratio, calculated by Stroop card 3/((Stroop card 1+Stroop card 2)/2) and animal fluency test. […]

[2] = Example 2 placebo-controlled trial: serum/plasma 25-OH D3 level in frail elderly; set-up: species or system human; settings: in vivo
From the text: The design is a parallel group, randomized, placebo-controlled, double-blind study with three different application groups. Each group has an appropriate number of participants (e.g., 20 participants). Eligibility is defined as being 65 years or older and being frail or pre-frail. Frailty is defined as having unintentional weight loss, weakness, self-reported exhaustion, slow walking speed, and/or low physical activity (see Fried L P, et al. Frailty in older adults: evidence for a phenotype. J Gerontol A Biol Sci Med. Sci. […] A participant is classified as pre-frail when one or two of the aforementioned criteria are met, while frail is classified when three or more criteria are present. […] The duration of supplementation is 6 months (180 days). […] Double-blind randomization is carried out by means of a label code associated with a specific participant ID number, whose meaning is known only to the supplier. Participants are allocated randomly to these numbers. For baseline (Day 0) the following tests are performed: […] Baseline evaluation is followed by the randomization of the subjects. From Day 2 on, they start to take the study compounds. […] For the combination administration, the same ranges of both actives are administered. At visits on Day 90 and Day 180 the following tests are performed: […]

healthy adults under 65 = test: Example 3 placebo-controlled trial: executive function tests in the general adult population; format: in vivo, human; settings: healthy adults under 65, 6 months
Method: The design is a parallel group, randomized, placebo-controlled, double-blind study similar to that of Example 2, above, except that the participants are healthy adults under 65. The duration of supplementation is 6 months (180 days). Group size is chosen so that a statistically significant difference, if present, may be observed between placebo and test groups. […] Double-blind randomization is carried out by means of a label code associated with a specific participant ID number, whose meaning is known only to the supplier. Participants are allocated randomly to these numbers. For baseline (Day 0) the following tests are performed: […] Baseline evaluation is followed by the randomization of the subjects. From Day 2 on, they start to take the study compounds. At visits on Day 90 and Day 180 the following tests are performed: […] Executive functioning test batteries include the following standard tests of executive functioning: Trail Making Tests A and B (to determine the ratio of TMT-B/TMT-A), Stroop Colour-Word Test, including determining the Stroop ratio, calculated by Stroop card 3/((Stroop card 1+Stroop card 2)/2) and animal fluency test. These tests are always performed at the same time of the day.

[3] = set-up: species or system human; settings: in vivo
From the text: The design is a parallel group, randomized, placebo-controlled, double-blind study similar to that of Example 2, above, except that the participants are healthy adults under 65. The duration of supplementation is 6 months (180 days). Group size is chosen so that a statistically significant difference, if present, may be observed between placebo and test groups.
Participants are randomly allocated to either the 25-OH D3 group, Vitamin D3 group, (Vitamin D3+25 OH D3) group or placebo group. Double-blind randomization is carried out by means of a label code associated with a specific participant ID number, whose meaning is known only to the supplier. Participants are allocated randomly to these numbers.
For baseline (Day 0) the following tests are performed: Physical examination, vital signs (blood pressure, heart rate), demographics, clinical laboratory, FFQ, serum: 25-OH D3, 24,25(OH)2D, 1,25(OH)2D3, Vitamin D3, calcium, albumin, creatinine, fasting glucose, PTH; urine: calcium, creatinine; executive function tests (see below). Baseline evaluation is followed by the randomization of the subjects. From Day 2 on, they start to take the study compounds. […]

25-OH D serum level [2]: significantly increases | 25-OH D serum level [3]: significantly increases
SMILES: C=C1CC[C@H](O)C/C1=C/C=C1\CCC[C@]2(C)[C@@H]([C@H](C)CCCC(C)(C)O)CC[C@@H]12 [25(OH)D, 25-hydroxyvitamin D3]
Improvement of executive functioning [1]: significantly higher effect | Executive function in comparison to placebo (healthy adults under 65): Positive results
